Tests used:
[1] = Solubility of oAB in 1-dodecanol (solid liquid equilibrium); format: physicochemical
Method: The solubility of oAB in dodecanol was tested with increasing temperature.

[2] = tested on: Corynebacterium glutamicum; assay: Aminobenzoate stability in fermenter culture supernatants by HPLC-DAD; settings: HPLC-DAD 254 nm
Text: It had to be excluded that the aminobenzoates were degraded by the organism and therefor the growth is restored after the prolonged lag-phase. To investigate the aminobenzoate stability in the fermenters culture supernatant samples were collected during the fermentation and analyzed by HPLC-DAD (254 nm) (see FIG. 23 and Example 3).
In a further experiment the concentration of oAB was increased to investigate the effect on the C. glutamicum strain. The four fermenters were hereto supplemented with 0 g/L, 15 g/L, 35 g/L and 80 g/L of oAB. […] The rest of the cultivation conditions was kept as described above. […] Cultures supplemented with 15 g/L oAB have shown an extensive lag-phase over 34-48 h before growth was recovered and cells entered the exponential phase (see FIG. 24). […]
An Agilent 1100 series HPLC-DAD system (with diode array detector; Agilent Technologies, Santa Clara (USA)) was used to quantify oAB concentrations in culture supernatants. […] The following gradient with a flow rate of 0.5 mL/min was applied: 0-1 min, 2% B; 1-2 min, 2-10% B; 2-12 min, 10-70% B; 12-23 min, 70-90% B; 23-25 min, 90-98% B, 25-27 min, 98% B; 27-27.5 min, 98%-2% B; 27.5-30 min, 2% B. The oAB concentration was determined from the signal integration at 254 nm (retention time: 18.9 min) using an external calibration curve.

[3] = tested on: Corynebacterium glutamicum; assay: Shake flask growth (OD600) with supplementation of toxic substances; format: cell-based, Corynebacterium glutamicum DSM 20300 (=ATCC 13032)
Text: Several strains commonly used industrial biotechnology were investigated regarding their natural tolerance towards oAB and to organic solvents in question for later product extraction (e.g. 1-dodecanol or octanol). Furthermore, the influence of the used pH value was investigated. It was known from previous experiments that at least for E. coli the toxicity of aromatic compounds depends strongly on the pH value, probably because protonated acids can much more efficiently penetrate the cell membrane and accordingly their toxicity rises severely. The extraction of oAB in an organic phase is supposed to work best at low pH values, close to the isoelectric point of oAB. The most relevant host strains considered were: Escherichia coli K12, Corynebacterium glutamicum DSM 20300 (=ATCC 13032), Pseudomonas putida KT2440, Bacillus subtilis subsp. 168, Saccharomyces cerevisiae DSM 70449, and Pichia pastoris X33 (DSM 70382).
To investigate the chosen strains towards the mentioned characteristics shake flasks and small scale fermentation experiments were performed and the organisms were supplemented with the toxic substances (aminobenzoates, solvents) at differed concentrations, different pH values, and the behaviour of the strains was studied.
The organisms (commercially obtained from ordered from the DSMZ, German collection of Microorganisms and cell cultures, Braunschweig) were firstly cultivated in shake flasks and in each of them in suiting, published standard minimal medium in order to characterize their growth under standard cultivation conditions (C. glutamicum: Preculture: BHI medium (37 g/L; Brain-Heart-Infusion; Becton Dickenson and Company, Heidelberg); Main culture pH 7: CGXII-MOPS medium (42 g/L MOPS buffer, 20 g/L (NH4)2SO4, 5 g/L urea (Fisher Scientific, Schwerte), 1 g/L KH2PO4, 1 g/L K2HPO4, 0.25 g/L MgSO4.7H2O (Merck, Darmstadt), 0.01 g/L CaCl2, and 10 g/L glucose (autoclaved separately). The pH was adjusted to 7 with 5 mol/L sodium hydroxide solution. […]

For `Nc1ccccc1C(=O)O` [oAB, 2-aminobenzoic acid], the “solubility in 1-dodecanol” value ([1]; 3 wt %, room temperature) was “perfectly soluble”, the “solubility of oAB in 1-dodecanol (concentration)” value (“solubility of oAB in 1-dodecanol” for short) ([1]; 40 ° C.) was 4.88 wt % and the “solubility of oAB in 1-dodecanol” value ([1]; 68 ° C.) was 13.10 wt %. For the same molecule, the “solubility of oAB in 1-dodecanol” value ([1]; 93 ° C.) was 23.05 wt %, the “solubility of oAB in 1-dodecanol” value ([1]; 111 ° C.) was 35.34 wt % and the “solubility of oAB in 1-dodecanol” value ([1]; 119 ° C.) was 44.22 wt %. For the same molecule, the “solubility of oAB in 1-dodecanol” value ([1]; 123 ° C.) was 50.93 wt %, the “degradation during cultivation / fermentation” value [2] was “excluded” and the “growth (OD600)” value ([3]; 3 g/L oAB, pH 7 (MOPS), 100-mL shake flask, 25 h) was “not inhibited”. The growth inhibition ([3]; 5 g/L, pH 5 and pH 7, shake flask) was “No growth inhibition” and the tolerance for o-aminobenzoate ([3]; Corynebacterium glutamicum ATCC13032) was “high tolerance”.

Reference: patent US10731187B2, “Recombinant strain producing O-aminobenzoate and fermentative production of aniline from renewable resources via 2-aminobenzoic acid” (Covestro Deutschland AG, priority 2014, dated 2020)
